From PubChem BioAssay (NCI)
Where “and” joins values, the source holds several entries; their conditions need not be identical. Identical values can stand only once.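 48-hour exposure; five concentrations; linearly interpolated endpoints. At the GI50, growth is halved. The concentration for full growth arrest is given as TGI.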

Legend:
Experiment in all cases: inhibition of tumour cell growth, NCI panel, 48 h
786-0 renal = tested on: 786-0 renal
A498 renal = tested on: A498 renal
A549 NSCLC = tested on: A549 NSCLC
ACHN renal = tested on: ACHN renal
CAKI-1 renal = tested on: CAKI-1 renal
CCRF-CEM leukemia = tested on: CCRF-CEM leukemia
COLO 205 colon = tested on: COLO 205 colon
DLD-1 colon = tested on: DLD-1 colon
DMS 114 small cell lung = tested on: DMS 114 small cell lung
DMS 273 small cell lung = tested on: DMS 273 small cell lung
EKVX NSCLC = tested on: EKVX NSCLC
HCC-2998 colon = tested on: HCC-2998 colon
HCT-116 colon = tested on: HCT-116 colon
HCT-15 colon = tested on: HCT-15 colon
HL-60(TB) leukemia = tested on: HL-60(TB) leukemia
HOP-62 NSCLC = tested on: HOP-62 NSCLC
HT29 colon = tested on: HT29 colon
IGROV1 ovarian = tested on: IGROV1 ovarian
K-562 leukemia = tested on: K-562 leukemia
KM12 colon = tested on: KM12 colon
KM20L2 colon = tested on: KM20L2 colon
LOX IMVI melanoma = tested on: LOX IMVI melanoma
LXFL 529 NSCLC = tested on: LXFL 529 NSCLC
M14 melanoma = tested on: M14 melanoma
M19-MEL melanoma = tested on: M19-MEL melanoma
MALME-3M melanoma = tested on: MALME-3M melanoma
NCI-H23 lung = tested on: NCI-H23 lung
NCI-H460 lung = tested on: NCI-H460 lung
OVCAR-4 ovarian = tested on: OVCAR-4 ovarian
OVCAR-5 ovarian = tested on: OVCAR-5 ovarian
RXF 393 renal = tested on: RXF 393 renal
SF-268 CNS = tested on: SF-268 CNS
SF-295 CNS = tested on: SF-295 CNS
SF-539 CNS = tested on: SF-539 CNS
SK-MEL-2 melanoma = tested on: SK-MEL-2 melanoma
SK-MEL-28 melanoma = tested on: SK-MEL-28 melanoma
SK-MEL-5 melanoma = tested on: SK-MEL-5 melanoma
SK-OV-3 ovarian = tested on: SK-OV-3 ovarian
SN12C renal = tested on: SN12C renal
SNB-19 CNS = tested on: SNB-19 CNS
SNB-78 CNS = tested on: SNB-78 CNS
SR leukemia = tested on: SR leukemia
SW-620 colon = tested on: SW-620 colon
TK-10 renal = tested on: TK-10 renal
U251 CNS = tested on: U251 CNS
UACC-257 melanoma = tested on: UACC-257 melanoma
UACC-62 melanoma = tested on: UACC-62 melanoma
UO-31 renal = tested on: UO-31 renal
BT-549 breast = tested on: BT-549 breast
DU-145 prostate = tested on: DU-145 prostate
HOP-92 NSCLC = tested on: HOP-92 NSCLC
HS 578T breast = tested on: HS 578T breast
MCF7 breast = tested on: MCF7 breast
MDA-MB-231 breast = tested on: MDA-MB-231 breast
MDA-MB-435 = tested on: MDA-MB-435
MDA-N = tested on: MDA-N
MOLT-4 leukemia = tested on: MOLT-4 leukemia
NCI-H226 lung = tested on: NCI-H226 lung
NCI-H522 lung = tested on: NCI-H522 lung
NCI/ADR-RES ovarian = tested on: NCI/ADR-RES ovarian
OVCAR-3 ovarian = tested on: OVCAR-3 ovarian
OVCAR-8 ovarian = tested on: OVCAR-8 ovarian
PC-3 prostate = tested on: PC-3 prostate
RPMI-8226 leukemia = tested on: RPMI-8226 leukemia
SNB-75 CNS = tested on: SNB-75 CNS
T-47D breast = tested on: T-47D breast

## O=C(CC1SC(=Nc2ccccc2Cl)NC1=O)Nc1ccc(Cl)cc1 (stereo not drawn)
786-0 renal
  TGI: > 100 µM
A498 renal
  TGI: > 100 µM
A549 NSCLC
  TGI: > 100 µM
ACHN renal
  TGI: > 100 µM
CAKI-1 renal
  TGI: > 100 µM
CCRF-CEM leukemia
  TGI: > 100 µM
COLO 205 colon
  TGI: 48.7 µM
DLD-1 colon
  TGI: > 100 µM
DMS 114 small cell lung
  TGI: > 100 µM
DMS 273 small cell lung
  TGI: > 100 µM
EKVX NSCLC
  TGI: > 100 µM
HCC-2998 colon
  TGI: > 100 µM
HCT-116 colon
  TGI: > 100 µM
HCT-15 colon
  TGI: 30.8 µM
HL-60(TB) leukemia
  TGI: > 100 µM
HOP-62 NSCLC
  TGI: > 100 µM
HT29 colon
  TGI: > 100 µM
IGROV1 ovarian
  TGI: > 100 µM
K-562 leukemia
  TGI: > 100 µM
KM12 colon
  TGI: > 100 µM
KM20L2 colon
  TGI: > 100 µM
LOX IMVI melanoma
  TGI: > 100 µM
LXFL 529 NSCLC
  TGI: > 100 µM
M14 melanoma
  TGI: > 100 µM
M19-MEL melanoma
  TGI: > 100 µM
MALME-3M melanoma
  TGI: > 100 µM
NCI-H23 lung
  TGI: > 100 µM
NCI-H460 lung
  TGI: > 100 µM
OVCAR-4 ovarian
  TGI: > 100 µM
OVCAR-5 ovarian
  TGI: > 100 µM
RXF 393 renal
  TGI: > 100 µM
SF-268 CNS
  TGI: > 100 µM
SF-295 CNS
  TGI: > 100 µM
SF-539 CNS
  TGI: > 100 µM
SK-MEL-2 melanoma
  TGI: > 100 µM
SK-MEL-28 melanoma
  TGI: > 100 µM
SK-MEL-5 melanoma
  TGI: > 100 µM
SK-OV-3 ovarian
  TGI: > 100 µM
SN12C renal
  TGI: > 100 µM
SNB-19 CNS
  TGI: > 100 µM
SNB-78 CNS
  TGI: > 100 µM
SR leukemia
  TGI: 69.9 µM
SW-620 colon
  TGI: 28.4 µM
TK-10 renal
  TGI: > 100 µM
U251 CNS
  TGI: > 100 µM
UACC-257 melanoma
  TGI: > 100 µM
UACC-62 melanoma
  TGI: > 100 µM
UO-31 renal
  TGI: > 100 µM

## COc1ccc(-c2nc(SC)n(C3OC(COC(C)=O)C(OC(C)=O)C(OC(C)=O)C3OC(C)=O)c(=O)c2C#N)cc1 (stereo not drawn)
786-0 renal
  TGI: > 100 µM
A498 renal
  GI50: 8.43 µM and 44.1 µM
  TGI: 44.5 µM and > 100 µM
A549 NSCLC
  TGI: > 100 µM
ACHN renal
  GI50: 35.8 µM and > 100 µM
  TGI: > 100 µM
BT-549 breast
  TGI: > 100 µM
CAKI-1 renal
  TGI: > 100 µM
CCRF-CEM leukemia
  TGI: > 100 µM
COLO 205 colon
  TGI: > 100 µM
DU-145 prostate
  TGI: > 100 µM
EKVX NSCLC
  TGI: > 100 µM
HCC-2998 colon
  TGI: > 100 µM
HCT-116 colon
  TGI: > 100 µM
HCT-15 colon
  TGI: > 100 µM
HL-60(TB) leukemia
  TGI: > 100 µM
HOP-62 NSCLC
  GI50: 24.4 µM and > 100 µM
  TGI: 52.7 µM and > 100 µM
HOP-92 NSCLC
  GI50: 14.1 µM and 39.2 µM
  TGI: 52.9 µM and > 100 µM
HS 578T breast
  TGI: > 100 µM
HT29 colon
  TGI: > 100 µM
IGROV1 ovarian
  TGI: > 100 µM
K-562 leukemia
  TGI: > 100 µM
KM12 colon
  TGI: > 100 µM
KM20L2 colon
  TGI: > 100 µM
LOX IMVI melanoma
  TGI: > 100 µM
LXFL 529 NSCLC
  TGI: > 100 µM
M14 melanoma
  TGI: > 100 µM
MALME-3M melanoma
  TGI: > 100 µM
MCF7 breast
  TGI: > 100 µM
MDA-MB-231 breast
  TGI: > 100 µM
MDA-MB-435
  TGI: > 100 µM
MDA-N
  TGI: > 100 µM
MOLT-4 leukemia
  TGI: > 100 µM
NCI-H226 lung
  TGI: > 100 µM
NCI-H23 lung
  GI50: 35.7 µM and > 100 µM
  TGI: > 100 µM
NCI-H460 lung
  GI50: 80.4 µM and 14.4 µM
  TGI: > 100 µM
NCI-H522 lung
  GI50: 18.7 µM and > 100 µM
  TGI: 72.7 µM and > 100 µM
NCI/ADR-RES ovarian
  TGI: > 100 µM
OVCAR-3 ovarian
  GI50: 38.2 µM and > 100 µM
  TGI: > 100 µM
OVCAR-4 ovarian
  GI50: 29.3 µM and > 100 µM
  TGI: > 100 µM
OVCAR-5 ovarian
  GI50: > 100 µM
  TGI: > 100 µM
OVCAR-8 ovarian
  TGI: > 100 µM
PC-3 prostate
  TGI: > 100 µM
RPMI-8226 leukemia
  GI50: 47.4 µM and > 100 µM
  TGI: > 100 µM
RXF 393 renal
  GI50: 16.5 µM and > 100 µM
  TGI: 35.4 µM and > 100 µM
SF-268 CNS
  GI50: 21.8 µM and 76.4 µM
  TGI: > 100 µM
SF-295 CNS
  GI50: 24.2 µM and > 100 µM
  TGI: 65.6 µM and > 100 µM
SF-539 CNS
  GI50: 31.3 µM and > 100 µM
  TGI: 81.9 µM and > 100 µM
SK-MEL-2 melanoma
  TGI: > 100 µM
SK-MEL-28 melanoma
  TGI: > 100 µM
SK-MEL-5 melanoma
  TGI: > 100 µM
SK-OV-3 ovarian
  GI50: 34.5 µM and > 100 µM
  TGI: 98.4 µM and > 100 µM
SN12C renal
  TGI: > 100 µM
SNB-19 CNS
  GI50: 26.3 µM and > 100 µM
  TGI: > 100 µM
SNB-75 CNS
  GI50: 22.8 µM and 65.6 µM
  TGI: 57.9 µM and > 100 µM
SNB-78 CNS
  TGI: 57.8 µM
SR leukemia
  TGI: > 100 µM
SW-620 colon
  TGI: > 100 µM
T-47D breast
  TGI: > 100 µM
TK-10 renal
  TGI: > 100 µM
U251 CNS
  TGI: > 100 µM
UACC-257 melanoma
  TGI: > 100 µM
UACC-62 melanoma
  GI50: 40.5 µM and > 100 µM
  TGI: > 100 µM
UO-31 renal
  TGI: 77.6 µM and > 100 µM

## C[C@H]1[C@H](C)CC[C@]2(C(=O)OC3OC(CO)C(O)C(O)C3O)CC[C@]3(C)C(=CC[C@@H]4[C@@]5(C)C[C@@H](O)[C@@H]6OC(=O)c7cc(O)c(O)c(O)c7-c7c(cc(O)c(O)c7O)C(=O)OC[C@]6(CO)[C@@H]5CC[C@]43C)[C@H]12 (stereo partly drawn)
786-0 renal
  TGI: 32.9 µM
A498 renal
  TGI: > 100 µM
A549 NSCLC
  TGI: > 100 µM
ACHN renal
  TGI: > 100 µM
BT-549 breast
  TGI: > 100 µM
CAKI-1 renal
  TGI: > 53.3 µM
CCRF-CEM leukemia
  TGI: 69.2 µM
COLO 205 colon
  TGI: > 100 µM
DU-145 prostate
  TGI: > 100 µM
EKVX NSCLC
  TGI: > 100 µM
HCC-2998 colon
  TGI: > 100 µM
HCT-116 colon
  TGI: > 100 µM
HCT-15 colon
  TGI: > 100 µM
HL-60(TB) leukemia
  TGI: 87.8 µM
HOP-62 NSCLC
  TGI: > 71.1 µM
HOP-92 NSCLC
  TGI: > 100 µM
HS 578T breast
  TGI: > 100 µM
HT29 colon
  TGI: > 55.8 µM
IGROV1 ovarian
  TGI: > 100 µM
K-562 leukemia
  TGI: > 100 µM
KM12 colon
  TGI: > 76.3 µM
LOX IMVI melanoma
  TGI: 25.8 µM
M14 melanoma
  TGI: > 100 µM
MALME-3M melanoma
  TGI: > 100 µM
MCF7 breast
  TGI: 21.8 µM
MDA-MB-231 breast
  TGI: 26.4 µM
MDA-MB-435
  TGI: 32.9 µM
MDA-N
  TGI: 51.1 µM
MOLT-4 leukemia
  TGI: 66.9 µM
NCI-H226 lung
  TGI: > 100 µM
NCI-H23 lung
  TGI: > 100 µM
NCI-H460 lung
  TGI: > 100 µM
NCI-H522 lung
  TGI: 37.3 µM
NCI/ADR-RES ovarian
  TGI: > 100 µM
OVCAR-3 ovarian
  TGI: > 72.1 µM
OVCAR-4 ovarian
  TGI: 40.1 µM
OVCAR-5 ovarian
  TGI: > 100 µM
OVCAR-8 ovarian
  TGI: > 100 µM
PC-3 prostate
  TGI: > 100 µM
RPMI-8226 leukemia
  TGI: > 100 µM
RXF 393 renal
  TGI: > 100 µM
SF-268 CNS
  TGI: > 100 µM
SF-295 CNS
  TGI: > 91 µM
SF-539 CNS
  TGI: > 100 µM
SK-MEL-2 melanoma
  TGI: > 100 µM
SK-MEL-28 melanoma
  TGI: > 100 µM
SK-MEL-5 melanoma
  TGI: > 100 µM
SK-OV-3 ovarian
  TGI: > 100 µM
SN12C renal
  TGI: > 100 µM
SNB-19 CNS
  TGI: > 77.9 µM
SNB-75 CNS
  TGI: > 100 µM
SR leukemia
  TGI: 73.3 µM
SW-620 colon
  TGI: > 63.3 µM
T-47D breast
  TGI: > 100 µM
TK-10 renal
  TGI: > 100 µM
U251 CNS
  TGI: 34.7 µM
UACC-257 melanoma
  TGI: > 100 µM
UACC-62 melanoma
  TGI: > 100 µM
UO-31 renal
  TGI: > 100 µM
